This note sets out measurements from US9615577B2, “Herbicidally active cyclic dione compounds, or derivatives therefor, substituted by a phenyl which has an alkynyl-containing substituent” (Syngenta Limited, priority 2012, dated 2017).

What all share (format): in vivo
For assay [1], the system named is Alopecurus myosuroides (ALOMY). Briefly: Biological Example 2 comparative herbicidal data, post-emergence glasshouse screen. Particulars: 312 h, read-out: Post-emergence herbicidal activities (percentage phytotoxicity) ALOMY; for pest or weed control at 8 g/ha: 8 g/ha application rate; for pest or weed control at 30 g/ha: 30 g/ha application rate. The method, then:
(§1) Seeds of a variety of test species were sown in standard soil in pots. After cultivation for one day (pre-emergence) or after 8 days cultivation (post-emergence) under controlled conditions in a glasshouse (at 24/16° C., day/night; 14 hours light; 65% humidity), the plants were sprayed with an aqueous spray solution derived from the formulation of the technical active ingredient in acetone/I water (50:50) solution containing 0.5% Tween 20 (polyoxyethelyene sorbitan monolaurate, CAS RN 9005-64-5). The test plants were then grown in a glasshouse under controlled conditions in a glasshouse (at 24/16° C., day/night; 14 hours light; 65% humidity) and watered twice daily. After 13 days for pre and post-emergence, the test was evaluated visually for percentage phytotoxicity to the plant (where 100=total damage to plant; 0=no damage to plant).
(§2) Comparative herbicidal data is given below for certain exemplified compounds with 4-(prop-1-ynyl)-2,6-dimethylphenyl or 4-(chloroethynyl)-2,6-dimethylphenyl headgroups, compared to the corresponding compounds with either 4-ethynyl-2,6-dimethylphenyl or 2,4,6-trimethylphenyl headgroups, as follows. Comparative herbicidal data is also given below for certain exemplified compounds with 4-(prop-1-ynyl)-2-chloro-6-methoxyphenyl headgroups, compared to the corresponding compounds with 4-ethynyl-2-chloro-6-methoxyphenyl or 4-(but-1-ynyl)-2-chloro-6-methoxyphenyl or 4-methyl-2-chloro-6-methoxyphenyl or 2-chloro-6-methoxyphenyl headgroups, as follows.
(§3) Except where specified otherwise, the glasshouse screen for herbicidal activity is substantially the same as that presented in Biological Example 1A (Test 1A) hereinabove. The weed abbreviations are as defined in Biological Example 1A.

Assay [2] relates to Echinochloa crus-galli (ECHCG). The description is as above. Particulars: 312 h, read-out: Post-emergence herbicidal activities (percentage phytotoxicity) ECHCG; for pest or weed control at 8 g/ha: 8 g/ha application rate; for pest or weed control at 30 g/ha: 30 g/ha application rate. How it is done: as §1, §2, §3
Assay [3] concerns Setaria faberi (SETFA). The description is as above. The conditions noted are these: 312 h, read-out: Post-emergence herbicidal activities (percentage phytotoxicity) SETFA; for pest or weed control at 8 g/ha: 8 g/ha application rate; for pest or weed control at 30 g/ha: 30 g/ha application rate. The method, then:
as §1, §2, §3

Assay [4] relates to Amarantus retroflexus (AMARE). Described as above. The conditions noted are these: Amaranthus retroflexus, read-out: Post-emergence herbicidal activities (percentage phytotoxicity) AMARE; for pest or weed control at 8 g/ha: 8 g/ha application rate; for pest or weed control at 30 g/ha: 30 g/ha application rate.
Assay [5] deals with Abutilon theophasti Medik. (ABUTH). Described as above. Particulars: read-out: Post-emergence herbicidal activities (percentage phytotoxicity) ABUTH; for pest or weed control at 8 g/ha: 8 g/ha application rate; for pest or weed control at 30 g/ha: 30 g/ha application rate.
Assay [6] has the same test system. Briefly: Test 1A glasshouse assay for herbicidal activity, pre-emergence. The conditions noted are these: 312 h, 250 g/ha, evaluated after 13 days, read-out: percentage phytotoxicity ABUTH. The method, then:
as §1
(§4) Alopecurus myosuroides (ALOMY), Setaria faberi (SETFA), Echinochloa crus-galli (ECHCG), Solanum nigrum (SOLNI), Amaranthus retroflexus (AMARE), Ipomoea hederacea (IPOHE), and Abutilon theophasti Medik. (ABUTH, common English name “velvetleaf”). Of these, Alopecurus myosuroides (ALOMY), Setaria faberi (SETFA), and Echinochloa crus-galli (ECHCG) are grassy monocotyledonous weeds.

The subject of assay [7] is Alopecurus myosuroides (ALOMY). The description is as above. Particulars: 312 h, 250 g/ha, evaluated after 13 days, read-out: percentage phytotoxicity ALOMY. How it is done:
as §1, §4

Assay [8] has as its system Amaranthus retroflexus (AMARE). Described as above. The conditions noted are these: 312 h, 250 g/ha, evaluated after 13 days, read-out: percentage phytotoxicity AMARE. How it is done:
as §1, §4

Assay [9] deals with Echinochloa crus-galli (ECHCG). Described as above. The conditions noted are these: 312 h, 250 g/ha, evaluated after 13 days, read-out: percentage phytotoxicity ECHCG. The method, then:
as §1, §4

Assay [10] concerns Setaria faberi (SETFA). Described as above. Particulars: 312 h, 250 g/ha, evaluated after 13 days, read-out: percentage phytotoxicity SETFA. The method, then: as §1, §4
Assay [11] relates to Abutilon theophasti Medik. (ABUTH). Briefly: Test 1A glasshouse assay for herbicidal activity, post-emergence. Particulars: 312 h, evaluated after 13 days, read-out: percentage phytotoxicity ABUTH. The method, then: as §1, §4
Assay [12] deals with Alopecurus myosuroides (ALOMY). Described as above. Particulars: 312 h, evaluated after 13 days, read-out: percentage phytotoxicity ALOMY. The method, then: as §1, §4
In assay [13] the test system is Amaranthus retroflexus (AMARE). The assay is described as above. The conditions noted are these: 312 h, evaluated after 13 days, read-out: percentage phytotoxicity AMARE. The method, then: as §1, §4
The test system of assay [14] is Echinochloa crus-galli (ECHCG). The description is as above. The conditions noted are these: 312 h, evaluated after 13 days, read-out: percentage phytotoxicity ECHCG. The method, then:
as §1, §4

For assay [15], the system named is Setaria faberi (SETFA). Described as above. Particulars: 312 h, evaluated after 13 days, read-out: percentage phytotoxicity SETFA. How it is done:
as §1, §4

`CSCCC1CC(=O)C(c2c(C)cc(C)cc2C)C(=O)C1` (stereo not drawn) [Compound X-7, reference compound]: the pest or weed control at 8 g/ha in assay [1], in [2], in assay [3], in assay [4] and in [5] was 0% each time. Moreover, the pest or weed control at 30 g/ha stood at 30% in assay [1]; 10% in [2]; 20% in assay [3]; 0% in [4]; 0% in assay [5].
As for `COc1cc(C)cc(Cl)c1C1C(=O)C2CCC(C2)C1=O` (stereo not drawn) [Compound X-5, reference compound], the pest or weed control at 8 g/ha in [1] turned out to be 0%; in assay [2], 0%; in assay [3] it was 20%; in [4] it was 30%; in assay [5], 0%. In addition, the pest or weed control at 30 g/ha in assay [1] amounted to 30%; in [2], 80%; in [3], 60%; in assay [4] it was 30%; in assay [5] it was 10%.
`CCC#Cc1cc(Cl)c(C2C(=O)C3CCC(C3)C2=O)c(OC)c1` (stereo not drawn) [Compound B-4]: the pest or weed control at 250 g/ha came to 10% in [6]; 100% in assay [7]; 40% in assay [8]; 100% in assay [9]; 70% in [10]; 70% in [11]. Also, the pest or weed control at 250 g/ha was 100% in assay [12], 30% in assay [13], 100% in assay [14] and 90% in assay [15]. Further, the pest or weed control at 30 g/ha in assay [1] stood at 60%; in assay [2], 80%; in assay [3], 70%; in [4], 20%; in assay [5], 0%.
`CC#Cc1cc(Cl)c(C2=C(OC(=O)c3ccc(Cl)cc3)CC(C3CCOCC3)CC2=O)c(OC)c1` (stereo not drawn) [Compound P-3]: the pest or weed control at 250 g/ha in assay [6] came out at 80%; in assay [7], 100%; in [8], 100%; in assay [9], 100%; in [10] it was 100%; in assay [11], 80%. Moreover, the pest or weed control at 250 g/ha in [12] turned out to be 90%; in assay [13], 80%; in assay [14] it was 100%; in assay [15], 100%. Also, the pest or weed control at 8 g/ha was determined as 20% in [11] (8 g/ha); 90% in assay [12] (8 g/ha); 20% in assay [13] (8 g/ha); 100% in assay [14] (8 g/ha); 100% in assay [15] (8 g/ha). Moreover, the pest or weed control at 30 g/ha in assay [11] turned out to be 70%; in assay [12] it was 100%; in [13], 80%; in assay [14], 100%; in assay [15] it was 100%.
For `C#Cc1cc(Cl)c(C2C(=O)CCCC2=O)c(OC)c1` [Compound B-2, 2-(2-Chloro-4-ethynyl-6-methoxy-phenyl)-3-hydroxy-cyclohex-2-en-1-one], the pest or weed control at 250 g/ha is 10% in [6]; 60% in [7]; 10% in assay [8]; 90% in assay [9]; 90% in assay [10]; 0% in assay [11]. The pest or weed control at 250 g/ha in [12] was found to be 70%; in assay [13], 0%; in [14], 100%; in [15], 90%. The pest or weed control at 8 g/ha stood at 0% in assay [1]; 0% in [2]; 10% in assay [3]; 0% in [4]; 0% in [5]. In addition, the pest or weed control at 30 g/ha was determined as 0% in assay [1]; 80% in [2]; 70% in assay [3]; 0% in assay [4]; 0% in [5].
On to `CC#Cc1cc(C)c(C2C(=O)CC(CC(C)SC)CC2=O)c(C)c1` (stereo not drawn) [Compound A-24, 2-(2,6-Dimethyl-4-prop-1-ynyl-phenyl)-5-(2-methylsulfanylpropyl)cyclohexane-1,3-dione], for which the pest or weed control at 250 g/ha in [6] was 20%; in [7], 90%; in assay [8], 80%; in assay [9], 100%; in [10], 100%; in assay [11], 60%. For the same compound, the pest or weed control at 250 g/ha was 100% in [12], 60% in assay [13], 100% in assay [14] and 100% in assay [15]. The pest or weed control at 30 g/ha in assay [11] amounted to 0%; in assay [12], 90%; in assay [13], 0%; in assay [14], 100%; in assay [15], 100%; in assay [1], 90%. For the same compound, the pest or weed control at 30 g/ha was 100% in assay [2], 100% in assay [3], 0% in assay [4] and 0% in assay [5].
In the case of `CSC(C)CC1CC(=O)C(c2c(C)cc(C)cc2C)C(=O)C1` (stereo not drawn) [Compound X-8, reference compound], the pest or weed control at 30 g/ha in [1] is 70%; in assay [2], 70%; in assay [3], 80%; in assay [4], 0%; in assay [5], 0%.
Take `COc1cccc(Cl)c1C1C(=O)CC2(CCOCC2)CC1=O` [Compound X-6, reference compound]: the pest or weed control at 30 g/ha is 20% in assay [1]; 10% in assay [2]; 10% in assay [3]; 20% in assay [4]; 0% in assay [5].
